Assay results published in the supplement of paper PMC11208160.

Assay: recombinant barcode read abundance after kanamycin selection (control-corrected) (log10(CPM+1)); higher = more efficient recombination; sequences stand for … in AGTGCAGAGAAAATCGGCCAGTTTTCTCTGCCTGCAGTCCGCATGCCGT…AGATTTATGCAGCGGACTGCCTTTCTCCCAAAGTGATAAACCGGACAGTATCATGGACCGGTTTTCCCGGTAATCCGTATTTGCAAGGTTGGTTTCACT; site = the 11-nt target
How it was run: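 Each value is log10(CPM+1). It describes recombination efficiency, taken as averaged, control-corrected counts per million of barcodes at recombinant junctions. The pooled E. coli library paired targets with IS621 bridge RNA target-binding loops, was co-electroporated with a donor plasmid, and was plated twice on chloramphenicol/ampicillin LB agar (control) and twice on chloramphenicol/ampicillin/kanamycin containing 0.1 mM IPTG.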
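Further: IS621 recombinase and bridge RNA in Escherichia coli cells.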

With “ATCCAGGCTTGGGTTCTAACCTGTTGCGG (site ATCCAGGCTCC)” as the sequence, how does the “recombinant barcode read abundance (log10)” value read?
The value was 2.07.

With “ATCCAGGCTTGGGTTCTAACCTGTTGCGG (site ATTCAGACTCC)” as the sequence, how does the “recombinant barcode read abundance (log10)” value read?
Its value is 0.00907.

For “ATCGGAGCTTGGGTTCTAACCTGTTGCTG (site ATCGGAGCTCA)”, which “recombinant barcode read abundance (log10)” value is on record?
Its value is 0.991.

Which “recombinant barcode read abundance (log10)” value does the source give for “ATCGGAGCTTGGGTTCTAACCTGTTGCTG (site ATCGGAGCTCC)” here?
Its value is 0.67.

For “ATCGGAGCTTGGGTTCTAACCTGTTGCTG (site ATCGGAGCTCG)”, which “recombinant barcode read abundance (log10)” value is on record?
Its value is 0.455.

Which “recombinant barcode read abundance (log10)” value does the source give for “ATCGGAGCTTGGGTTCTAACCTGTTGCTG (site ATCGGAGCTCT)” here?
The value was 0.627.

Which “recombinant barcode read abundance (log10)” value does the source give for “ATCGGATCTTGGGTTCTAACCTGTTGCCG (site ATCGGATCTCG)” here?
The value was 0.782.

Which “recombinant barcode read abundance (log10)” value does the source give for “ATCGGATCTTGGGTTCTAACCTGTTGCCG (site CATAACCCTAT)” here?
The value was 0.349.

With “ATCGGGCCTTGGGTTCTAACCTGTTGCCT (site ATCGGGCCTAG)” as the sequence, how does the “recombinant barcode read abundance (log10)” value read?
The value was 0.47.

For “ATCGGGCCTTGGGTTCTAACCTGTTGCCT (site CTCGGGCCTAG)”, which “recombinant barcode read abundance (log10)” value is on record?
Its value is 0.0724.

With “ATCGGGCCTTGGGTTCTAACCTGTTGCCT (site GTCGGGCCTAG)” as the sequence, how does the “recombinant barcode read abundance (log10)” value read?
Its value is 0.582.

With “ATCGGGCCTTGGGTTCTAACCTGTTGCCT (site TTCGGGCCTAG)” as the sequence, how does the “recombinant barcode read abundance (log10)” value read?
Its value is 0.0744.

With “ATCGTAGCTTGGGTTCTAACCTGTTGCCA (site ACCCTAGCTTG)” as the sequence, how does the “recombinant barcode read abundance (log10)” value read?
The value was 0.497.

With “ATCGTAGCTTGGGTTCTAACCTGTTGCCA (site ATCGTAGCTTG)” as the sequence, how does the “recombinant barcode read abundance (log10)” value read?
The value was 0.228.

With “ATCGTTCCTTGGGTTCTAACCTGTTGCGT (site ACCGGTCCTAC)” as the sequence, how does the “recombinant barcode read abundance (log10)” value read?
Its value is 0.0508.

For “ATCGTTCCTTGGGTTCTAACCTGTTGCGT (site ATCGTTCCTAC)”, which “recombinant barcode read abundance (log10)” value is on record?
The value was 0.411.

For “ATCTTACCTTGGGTTCTAACCTGTTGCCT (site ATCTTAACTAG)”, which “recombinant barcode read abundance (log10)” value is on record?
Its value is 0.069.

Which “recombinant barcode read abundance (log10)” value does the source give for “ATCTTACCTTGGGTTCTAACCTGTTGCCT (site ATCTTACCTAG)” here?
The value was 0.681.

With “ATCTTACCTTGGGTTCTAACCTGTTGCCT (site ATCTTAGCTAG)” as the sequence, how does the “recombinant barcode read abundance (log10)” value read?
Its value is 0.0332.

For “ATCTTACCTTGGGTTCTAACCTGTTGCCT (site ATCTTATCTAG)”, which “recombinant barcode read abundance (log10)” value is on record?
Its value is 0.109.

With “ATGAAGCCTTGGGTTCTAACCTGTTGCCT (site ATGAAGCCTAG)” as the sequence, how does the “recombinant barcode read abundance (log10)” value read?
Its value is 1.87.

For “ATGAAGCCTTGGGTTCTAACCTGTTGCCT (site CTGAAGCCTAG)”, which “recombinant barcode read abundance (log10)” value is on record?
Its value is 0.053.

Which “recombinant barcode read abundance (log10)” value does the source give for “ATGAAGCCTTGGGTTCTAACCTGTTGCCT (site GTGAAGCCTAG)” here?
Its value is 0.177.

Which “recombinant barcode read abundance (log10)” value does the source give for “ATGAAGCCTTGGGTTCTAACCTGTTGCCT (site TTGAAGCCTAG)” here?
The value was 0.503.

With “ATGAGCTCTTGGGTTCTAACCTGTTGCTA (site ATGAGCTCTTA)” as the sequence, how does the “recombinant barcode read abundance (log10)” value read?
The value was 1.12.

Which “recombinant barcode read abundance (log10)” value does the source give for “ATGAGCTCTTGGGTTCTAACCTGTTGCTA (site ATGAGGTCTGA)” here?
The value was 0.0495.

For “ATGAGTCCTTGGGTTCTAACCTGTTGCAA (site ATGAGTCCTTT)”, which “recombinant barcode read abundance (log10)” value is on record?
Its value is 1.25.

With “ATGAGTCCTTGGGTTCTAACCTGTTGCAA (site TGAGAGACTAC)” as the sequence, how does the “recombinant barcode read abundance (log10)” value read?
Its value is 0.0172.

For “ATGATACCTTGGGTTCTAACCTGTTGCCT (site AAGATACCTAG)”, which “recombinant barcode read abundance (log10)” value is on record?
The value was 0.157.

For “ATGATACCTTGGGTTCTAACCTGTTGCCT (site ATGATACCTAG)”, which “recombinant barcode read abundance (log10)” value is on record?
Its value is 1.84.

For “ATGCAAACTTGGGTTCTAACCTGTTGCCT (site ATGCAAACTAG)”, which “recombinant barcode read abundance (log10)” value is on record?
Its value is 1.31.

Which “recombinant barcode read abundance (log10)” value does the source give for “ATGCAAACTTGGGTTCTAACCTGTTGCCT (site ATGCAACCTAG)” here?
The value was 0.0759.

With “ATGCAAACTTGGGTTCTAACCTGTTGCCT (site ATGCAAGCTAG)” as the sequence, how does the “recombinant barcode read abundance (log10)” value read?
Its value is 0.653.

For “ATGCAAACTTGGGTTCTAACCTGTTGCCT (site ATGCAATCTAG)”, which “recombinant barcode read abundance (log10)” value is on record?
Its value is 0.151.

Which “recombinant barcode read abundance (log10)” value does the source give for “ATGCACGCTTGGGTTCTAACCTGTTGCCT (site ATGCACGCTAG)” here?
The value was 1.81.

For “ATGCACGCTTGGGTTCTAACCTGTTGCCT (site TATATGACTCC)”, which “recombinant barcode read abundance (log10)” value is on record?
The value was 0.036.
